In US9417241B2, “5, 10, 15, 20-tetrakis (carboxyphenyl) porphine (TCPP) and kit for use with detecting cancer” (bioAffinity Technologies, Inc., priority 2000, dated 2016):

What was measured:
[1] = tested on: cancerous cells of the lung; details: incubation of a cell sample for 6-24 hours with 200 μg/ml TCPP; cited from earlier work
[2] = tested on: sputum cells (dysplastic, pre-cancerous and cancerous cells); test: Glass slide assay for detection of pre-cancerous and cancerous cells with TCPP (fluorescence microscopy of sputum monolayer slides vs PAP-stain cytomorphology); format: cell-based, human

Question: For `O=C(O)c1ccc(-c2c3nc(c(-c4ccc(C(=O)O)cc4)c4ccc([nH]4)c(-c4ccc(C(=O)O)cc4)c4nc(c(-c5ccc(C(=O)O)cc5)c5ccc2[nH]5)C=C4)C=C3)cc1` [TCPP], which “Cellular uptake and localisation of TCPP” value [1] is on record?
Answer: bound to the perinuclear membrane and mitochondria of neoplastic cells

Question: What about the “Number of Samples with Cells having Numerical Description by TCPP Fluorescence Microscopy/Number of Samples with Cell Description by Cytmorphology” value ([2]; 1 = Large nucleus or nuclei, low to medium fluorescence, Adenicarcinoma, squamous cell and small cell carcinoma (n = 10)) of the same compound?
Answer: 6/10

Question: And the “Number of Samples with Cells having Numerical Description by TCPP Fluorescence Microscopy/Number of Samples with Cell Description by Cytmorphology” value ([2]; 1 = Large nucleus or nuclei, low to medium fluorescence, Carcinoma in situ (n = 11))?
Answer: 10/11

Question: What about the “Number of Samples with Cells having Numerical Description by TCPP Fluorescence Microscopy/Number of Samples with Cell Description by Cytmorphology” value ([2]; 1 = Large nucleus or nuclei, low to medium fluorescence, Mild dysplasia (n = 12)) of the same compound?
Answer: 12/12

Question: And the “Number of Samples with Cells having Numerical Description by TCPP Fluorescence Microscopy/Number of Samples with Cell Description by Cytmorphology” value ([2]; 1 = Large nucleus or nuclei, low to medium fluorescence, Moderate dysplasia (n = 9))?
Answer: 9/9

Question: What about the “Number of Samples with Cells having Numerical Description by TCPP Fluorescence Microscopy/Number of Samples with Cell Description by Cytmorphology” value ([2]; 1 = Large nucleus or nuclei, low to medium fluorescence, Negative or metaplastic (n = 10)) of the same compound?
Answer: 3/10

Question: What about the “Number of Samples with Cells having Numerical Description by TCPP Fluorescence Microscopy/Number of Samples with Cell Description by Cytmorphology” value ([2]; 1 = Large nucleus or nuclei, low to medium fluorescence, Severe dysplasia (n = 8)) of the same compound?
Answer: 7/8

Question: What about the “Number of Samples with Cells having Numerical Description by TCPP Fluorescence Microscopy/Number of Samples with Cell Description by Cytmorphology” value ([2]; 2 = Symmetrical binuclear cells, medium fluorescence, Adenicarcinoma, squamous cell and small cell carcinoma (n = 10)) of the same compound?
Answer: 2/10

Question: And the “Number of Samples with Cells having Numerical Description by TCPP Fluorescence Microscopy/Number of Samples with Cell Description by Cytmorphology” value ([2]; 2 = Symmetrical binuclear cells, medium fluorescence, Carcinoma in situ (n = 11))?
Answer: 3/11

Question: And the “Number of Samples with Cells having Numerical Description by TCPP Fluorescence Microscopy/Number of Samples with Cell Description by Cytmorphology” value ([2]; 2 = Symmetrical binuclear cells, medium fluorescence, Mild dysplasia (n = 12))?
Answer: 5/12

Question: And the “Number of Samples with Cells having Numerical Description by TCPP Fluorescence Microscopy/Number of Samples with Cell Description by Cytmorphology” value ([2]; 2 = Symmetrical binuclear cells, medium fluorescence, Moderate dysplasia (n = 9))?
Answer: 5/9

Question: What about the “Number of Samples with Cells having Numerical Description by TCPP Fluorescence Microscopy/Number of Samples with Cell Description by Cytmorphology” value ([2]; 2 = Symmetrical binuclear cells, medium fluorescence, Negative or metaplastic (n = 10)) of the same compound?
Answer: 0/10

Question: What about the “Number of Samples with Cells having Numerical Description by TCPP Fluorescence Microscopy/Number of Samples with Cell Description by Cytmorphology” value ([2]; 2 = Symmetrical binuclear cells, medium fluorescence, Severe dysplasia (n = 8)) of the same compound?
Answer: 3/8

Question: What about the “Number of Samples with Cells having Numerical Description by TCPP Fluorescence Microscopy/Number of Samples with Cell Description by Cytmorphology” value ([2]; 3 = Small oval cells, medium to high fluorescence, Adenicarcinoma, squamous cell and small cell carcinoma (n = 10)) of the same compound?
Answer: 6/10

Question: What about the “Number of Samples with Cells having Numerical Description by TCPP Fluorescence Microscopy/Number of Samples with Cell Description by Cytmorphology” value ([2]; 3 = Small oval cells, medium to high fluorescence, Carcinoma in situ (n = 11)) of the same compound?
Answer: 6/11

Question: And the “Number of Samples with Cells having Numerical Description by TCPP Fluorescence Microscopy/Number of Samples with Cell Description by Cytmorphology” value ([2]; 3 = Small oval cells, medium to high fluorescence, Mild dysplasia (n = 12))?
Answer: 4/12

Question: What about the “Number of Samples with Cells having Numerical Description by TCPP Fluorescence Microscopy/Number of Samples with Cell Description by Cytmorphology” value ([2]; 3 = Small oval cells, medium to high fluorescence, Moderate dysplasia (n = 9)) of the same compound?
Answer: 4/9

Question: And the “Number of Samples with Cells having Numerical Description by TCPP Fluorescence Microscopy/Number of Samples with Cell Description by Cytmorphology” value ([2]; 3 = Small oval cells, medium to high fluorescence, Negative or metaplastic (n = 10))?
Answer: 0/10

Question: And the “Number of Samples with Cells having Numerical Description by TCPP Fluorescence Microscopy/Number of Samples with Cell Description by Cytmorphology” value ([2]; 3 = Small oval cells, medium to high fluorescence, Severe dysplasia (n = 8))?
Answer: 2/8

Question: What about the “Number of Samples with Cells having Numerical Description by TCPP Fluorescence Microscopy/Number of Samples with Cell Description by Cytmorphology” value ([2]; 4 = Small round cells, low fluorescence, Adenicarcinoma, squamous cell and small cell carcinoma (n = 10)) of the same compound?
Answer: 2/10

Question: And the “Number of Samples with Cells having Numerical Description by TCPP Fluorescence Microscopy/Number of Samples with Cell Description by Cytmorphology” value ([2]; 4 = Small round cells, low fluorescence, Carcinoma in situ (n = 11))?
Answer: 0/11

Question: And the “Number of Samples with Cells having Numerical Description by TCPP Fluorescence Microscopy/Number of Samples with Cell Description by Cytmorphology” value ([2]; 4 = Small round cells, low fluorescence, Mild dysplasia (n = 12))?
Answer: 0/12

Question: And the “Number of Samples with Cells having Numerical Description by TCPP Fluorescence Microscopy/Number of Samples with Cell Description by Cytmorphology” value ([2]; 4 = Small round cells, low fluorescence, Moderate dysplasia (n = 9))?
Answer: 0/9

Question: What about the “Number of Samples with Cells having Numerical Description by TCPP Fluorescence Microscopy/Number of Samples with Cell Description by Cytmorphology” value ([2]; 4 = Small round cells, low fluorescence, Negative or metaplastic (n = 10)) of the same compound?
Answer: 0/10

Question: What about the “Number of Samples with Cells having Numerical Description by TCPP Fluorescence Microscopy/Number of Samples with Cell Description by Cytmorphology” value ([2]; 4 = Small round cells, low fluorescence, Severe dysplasia (n = 8)) of the same compound?
Answer: 0/8

Question: And the “Number of Samples with Cells having Numerical Description by TCPP Fluorescence Microscopy/Number of Samples with Cell Description by Cytmorphology” value ([2]; 5 = Multi-nucleated cells, medium fluorescence, Adenicarcinoma, squamous cell and small cell carcinoma (n = 10))?
Answer: 7/10

Question: What about the “Number of Samples with Cells having Numerical Description by TCPP Fluorescence Microscopy/Number of Samples with Cell Description by Cytmorphology” value ([2]; 5 = Multi-nucleated cells, medium fluorescence, Carcinoma in situ (n = 11)) of the same compound?
Answer: 9/11

Question: And the “Number of Samples with Cells having Numerical Description by TCPP Fluorescence Microscopy/Number of Samples with Cell Description by Cytmorphology” value ([2]; 5 = Multi-nucleated cells, medium fluorescence, Mild dysplasia (n = 12))?
Answer: 0/12

Question: And the “Number of Samples with Cells having Numerical Description by TCPP Fluorescence Microscopy/Number of Samples with Cell Description by Cytmorphology” value ([2]; 5 = Multi-nucleated cells, medium fluorescence, Moderate dysplasia (n = 9))?
Answer: 3/9

Question: What about the “Number of Samples with Cells having Numerical Description by TCPP Fluorescence Microscopy/Number of Samples with Cell Description by Cytmorphology” value ([2]; 5 = Multi-nucleated cells, medium fluorescence, Negative or metaplastic (n = 10)) of the same compound?
Answer: 0/10

Question: What about the “Number of Samples with Cells having Numerical Description by TCPP Fluorescence Microscopy/Number of Samples with Cell Description by Cytmorphology” value ([2]; 5 = Multi-nucleated cells, medium fluorescence, Severe dysplasia (n = 8)) of the same compound?
Answer: 6/8

Question: And the “Number of Samples with Cells having Numerical Description by TCPP Fluorescence Microscopy/Number of Samples with Cell Description by Cytmorphology” value ([2]; 6 = Irregular anisoid cells, low to medium fluorescence, Adenicarcinoma, squamous cell and small cell carcinoma (n = 10))?
Answer: 7/10

Question: What about the “Number of Samples with Cells having Numerical Description by TCPP Fluorescence Microscopy/Number of Samples with Cell Description by Cytmorphology” value ([2]; 6 = Irregular anisoid cells, low to medium fluorescence, Carcinoma in situ (n = 11)) of the same compound?
Answer: 10/11

Question: What about the “Number of Samples with Cells having Numerical Description by TCPP Fluorescence Microscopy/Number of Samples with Cell Description by Cytmorphology” value ([2]; 6 = Irregular anisoid cells, low to medium fluorescence, Mild dysplasia (n = 12)) of the same compound?
Answer: 0/12

Question: What about the “Number of Samples with Cells having Numerical Description by TCPP Fluorescence Microscopy/Number of Samples with Cell Description by Cytmorphology” value ([2]; 6 = Irregular anisoid cells, low to medium fluorescence, Moderate dysplasia (n = 9)) of the same compound?
Answer: 1/9

Question: And the “Number of Samples with Cells having Numerical Description by TCPP Fluorescence Microscopy/Number of Samples with Cell Description by Cytmorphology” value ([2]; 6 = Irregular anisoid cells, low to medium fluorescence, Negative or metaplastic (n = 10))?
Answer: 0/10

Question: And the “Number of Samples with Cells having Numerical Description by TCPP Fluorescence Microscopy/Number of Samples with Cell Description by Cytmorphology” value ([2]; 6 = Irregular anisoid cells, low to medium fluorescence, Severe dysplasia (n = 8))?
Answer: 1/8

Question: And the “Number of Samples with Cells having Numerical Description by TCPP Fluorescence Microscopy/Number of Samples with Cell Description by Cytmorphology” value ([2]; 7 = Cellular clusters, medium to high fluorescence, Adenicarcinoma, squamous cell and small cell carcinoma (n = 10))?
Answer: 3/10

Question: And the “Number of Samples with Cells having Numerical Description by TCPP Fluorescence Microscopy/Number of Samples with Cell Description by Cytmorphology” value ([2]; 7 = Cellular clusters, medium to high fluorescence, Carcinoma in situ (n = 11))?
Answer: 1/11

Question: And the “Number of Samples with Cells having Numerical Description by TCPP Fluorescence Microscopy/Number of Samples with Cell Description by Cytmorphology” value ([2]; 7 = Cellular clusters, medium to high fluorescence, Mild dysplasia (n = 12))?
Answer: 0/12

Question: And the “Number of Samples with Cells having Numerical Description by TCPP Fluorescence Microscopy/Number of Samples with Cell Description by Cytmorphology” value ([2]; 7 = Cellular clusters, medium to high fluorescence, Moderate dysplasia (n = 9))?
Answer: 1/9

Question: What about the “Number of Samples with Cells having Numerical Description by TCPP Fluorescence Microscopy/Number of Samples with Cell Description by Cytmorphology” value ([2]; 7 = Cellular clusters, medium to high fluorescence, Negative or metaplastic (n = 10)) of the same compound?
Answer: 0/10

Question: And the “Number of Samples with Cells having Numerical Description by TCPP Fluorescence Microscopy/Number of Samples with Cell Description by Cytmorphology” value ([2]; 7 = Cellular clusters, medium to high fluorescence, Severe dysplasia (n = 8))?
Answer: 0/8

Question: What about the “Number of Samples with Cells having Numerical Description by TCPP Fluorescence Microscopy/Number of Samples with Cell Description by Cytmorphology” value ([2]; 8 = Degenerated single cells, medium to high fluorescence, Adenicarcinoma, squamous cell and small cell carcinoma (n = 10)) of the same compound?
Answer: 7/10

Question: And the “Number of Samples with Cells having Numerical Description by TCPP Fluorescence Microscopy/Number of Samples with Cell Description by Cytmorphology” value ([2]; 8 = Degenerated single cells, medium to high fluorescence, Carcinoma in situ (n = 11))?
Answer: 4/11

Question: What about the “Number of Samples with Cells having Numerical Description by TCPP Fluorescence Microscopy/Number of Samples with Cell Description by Cytmorphology” value ([2]; 8 = Degenerated single cells, medium to high fluorescence, Mild dysplasia (n = 12)) of the same compound?
Answer: 0/12

Question: And the “Number of Samples with Cells having Numerical Description by TCPP Fluorescence Microscopy/Number of Samples with Cell Description by Cytmorphology” value ([2]; 8 = Degenerated single cells, medium to high fluorescence, Moderate dysplasia (n = 9))?
Answer: 0/9

Question: What about the “Number of Samples with Cells having Numerical Description by TCPP Fluorescence Microscopy/Number of Samples with Cell Description by Cytmorphology” value ([2]; 8 = Degenerated single cells, medium to high fluorescence, Negative or metaplastic (n = 10)) of the same compound?
Answer: 0/10

Question: What about the “Number of Samples with Cells having Numerical Description by TCPP Fluorescence Microscopy/Number of Samples with Cell Description by Cytmorphology” value ([2]; 8 = Degenerated single cells, medium to high fluorescence, Severe dysplasia (n = 8)) of the same compound?
Answer: 0/8

Question: And the “Number of Samples with Cells having Numerical Description by TCPP Fluorescence Microscopy/Number of Samples with Cell Description by Cytmorphology” value ([2]; 9 = Degenerated cell clusters, medium to high fluorescence, Adenicarcinoma, squamous cell and small cell carcinoma (n = 10))?
Answer: 4/10

Question: What about the “Number of Samples with Cells having Numerical Description by TCPP Fluorescence Microscopy/Number of Samples with Cell Description by Cytmorphology” value ([2]; 9 = Degenerated cell clusters, medium to high fluorescence, Carcinoma in situ (n = 11)) of the same compound?
Answer: 1/11

Question: What about the “Number of Samples with Cells having Numerical Description by TCPP Fluorescence Microscopy/Number of Samples with Cell Description by Cytmorphology” value ([2]; 9 = Degenerated cell clusters, medium to high fluorescence, Mild dysplasia (n = 12)) of the same compound?
Answer: 0/12

Question: What about the “Number of Samples with Cells having Numerical Description by TCPP Fluorescence Microscopy/Number of Samples with Cell Description by Cytmorphology” value ([2]; 9 = Degenerated cell clusters, medium to high fluorescence, Moderate dysplasia (n = 9)) of the same compound?
Answer: 0/9
